# Test results as given in patent US6462064B1, “Apoptosis inducing adamantyl derivatives and their usage as anti-cancer agents, especially for cervical cancers and dysplasias” (Galderma Research & Development S.N.C., priority 1996, dated 2002).
# Entries after “also recorded” stand apart in the source; their conditions may differ.
# Key:
# [1] = tested on: various human cancer cell lines; assay: Anti-cancer activity against human cancer cell lines over a concentration range (FIGS. 2-4); assay type: cell-based; conditions: retinoid concentrations 10^−9 M to 10^−5 M
# From the text: FIG. 2 compares the activity of selected adamantyl retinoids according to the invention and all-trans-retinoic acid against a human non-small lung carcinoma cell line.
# FIG. 3 compares the activity of selected adamantyl retinoids according to the invention and all-trans-retinoic acid against human prostate adenocarcinoma, human metastatic prostate adenocarcinoma, and human prostate carcinoma cell lines.
# FIG. 4 compares the activity of selected adamantyl retinoids according to the invention and all-trans-retinoic acid against a human liver cancer cell line.
# cancer cells = assay: List of active compounds: types of cancers and precancers active against; assay type: cell-based
# From the text: As discussed, the adamantyl retinoid derivatives according to the invention which induce apoptosis are useful for treating many different types of cancers.
# [2] = tested on: cervical cancer cell lines; assay: Apoptosis, cellular DNA fragmentation ELISA (FIG. 8); assay type: cell-based, human; conditions: eighteen hours; adapalene 1, 5 and 10 μM, tRA 10 μM, ceramide 0.5 mM
# Procedure: In this experiment cells were labeled with BrdU for six hours. After labeling, cells were treated with vehicle (DM50), or with 10 μM tRA, 0.5 mM ceramide or doses of adapalene of 1, 5 and 10 μM for eighteen hours. Apoptosis was measured using a cellular DNA fragmentation ELISA kit (available from Boehringer). […] Therein, one unit represents the value obtained from cells grown in the presence of vehicle alone.
# [3] = tested on: human cervical cancer cell lines (C33A cells and Caski cells); assay: Proliferation of human cervical cancer cell lines (Example 33, FIG. 7); assay type: cell-based
# Procedure: Another experiment was also conducted to compare the effect of three different retinoid compounds according to the invention, i.e., 6-[3-(1-adamantyl)-4-methoxyphenyl]-2-naphthoic acid, 2-[3-(1-adamantyl)-4-methoxyphenyl]-5-benzimidazole carboxylic acid, and 6-[3-(1-adamantyl)-4,5-methylenedioxyphenyl]-2-naphthoic acid, a control (DMSO), and a control retinoid (all-trans retinoic acid) on the proliferation of several human cervical cancer cell lines (C33A cells and Caski cells).
# [4] = tested on: Cervical Intraepithelial Neoplasia Level II or III; assay: Phase I/II clinical study, aqueous adapalene gel with cervical cap and collagen sponge; assay type: in vivo, human; conditions: for CIN Resolved / Improved to CIN I / Overall Response / Overall “cure” / Improved from CIN III to CIN II: Table II
# From the text: Level I corresponds to mild cervical dysplasia, II to moderate dysplasia, and III to severe dysplasia, and carcinoma in situ.
# A clinical study was designed and approved where an aqueous adapalene gel was delivered with a cervical cap and a collagen sponge in patients with advanced cervical dysplasia (CIN II and CIN III). Inclusion criteria for enrollment included a biopsy proving diagnosis of CIN II or CIN III. Forty-nine patients received the drug and completed the study.
# [5] = tested on: human cervical cancer cell lines Caski and C33A; assay: Proliferation assay on cervical cancer cell lines (Example 32, FIG. 6); assay type: cell-based
# Procedure: Two human cervical cancer cell lines, the Caski and C33A (which contains integrated human papillomavirus sequences) were treated with adapalene at concentrations of 1, 2 and 10 μM for 24, 48 and 96 hours or with tretinoin as a control. Afterward, human cervical cancer cells, which had been treated for […] or 48 hours, were then washed and incubated in a medium lacking adapalene.
# After a total incubation time of 96 hours, a proliferation assay was performed to assess the extent of inhibition of proliferation or cell killing. […] The EC50 (concentration of adapalene that provides for 50% inhibition of cell proliferation) for the tested human cervical cancer cell lines was estimated to be approximately 5 μM.
# [6] = length of treatment 4 days (n = 2), patients (percent)
# [7] = length of treatment 8 days (n = 23), patients (percent)
# [8] = length of treatment 14 days (n = 24), patients (percent)
compound,measurement,setting,value
"COc1cc(-c2ccc3cc(C(=O)O)ccc3c2)cc(C23CC4CC(CC(C4)C2)C3)c1O [Compound 4, 6-[3-(1-adamantyl)-4-hydroxy-5-methoxyphenyl]-2-naphthoic acid]",anti-cancer activity,[1],significant anti-cancer activity
same,Types of Cancers and Precancers Active Against,cancer cells,"brain, breast, kidney, lung,; also recorded: leukemia, lymphoma, myeloma,; also recorded: ovarian, pancreatic, prostate,; also recorded: skin, liver"
Ceramide,induction of apoptosis,[2],effectively induced apoptosis
"COc1ccc(-c2nc3ccc(C(=O)O)cc3[nH]2)cc1C12CC3CC(CC(C3)C1)C2 [Compound 2, 2-[3-(1-adamantyl)-4-methoxyphenyl]-5-benzimidazole carboxylic acid]",anti-cancer activity,[1],significant anti-cancer activity
same,effect on proliferation of human cervical cell lines,[3],strong inhibitory effect
same,Types of Cancers and Precancers Active Against,cancer cells,"brain, colon, leukemia, lung,; also recorded: cervical (including, e.g.,; also recorded: cervical intraepithelial neoplasia; also recorded: I, II, III), lymphoma, myeloma,; also recorded: ovarian, pancreatic, prostate,; also recorded: skin, liver"
"O=C(O)c1ccc2cc(-c3ccc(CO)c(C45CC6CC(CC(C6)C4)C5)c3)ccc2c1 [Compound 3, 6-[3-(1-adamantyl)-4-hydroxymethylphenyl]-2-naphthoic acid]",anti-cancer activity,[1],significant anti-cancer activity
same,Types of Cancers and Precancers Active Against,cancer cells,"bladder, brain, breast, cervical,; also recorded: colon, head and neck, leukemia,; also recorded: kidney, lung, myeloma, ovarian,; also recorded: pancreatic, prostate, skin, liver"
"CC(=O)OCc1ccc(-c2ccc3cc(C(=O)O)ccc3c2)cc1C12CC3CC(CC(C3)C1)C2 [Compound 5, 6-[3-(1-adamantyl)-4-acetoxymethylphenyl]-2-naphthoic acid]",Types of Cancers and Precancers Active Against,cancer cells,"head and neck, leukemia, lung,; also recorded: lymphoma, myeloma, pancre-; also recorded: atic, skin"
"COc1ccc(-c2ccc3cc(C(=O)N4CCNCC4)ccc3c2)cc1C12CC3CC(CC(C3)C1)C2 [Compound 7, N-{6-[3-(1-adamantyl)-4-methoxyphenyl]-2-naphthalenecarboxoyl}piperizide]",Types of Cancers and Precancers Active Against,cancer cells,"brain, breast, head and neck,; also recorded: myeloma, prostate, skin"
"COc1ccc(-c2ccc3cc(C(=O)O)ccc3c2)cc1C12CC3CC(CC(C3)C1)C2 [Compound 1, 6-[3-(1-adamantyl)-4-methoxyphenyl]-2-naphthoic acid]",induction of apoptosis,[2],comparable to that of cells incubated with ceramide
same,Response: Complete,"[4]; 4 days, CIN II (n = 0)",0(0.0)
same,Response: Overall,"[4]; 4 days, CIN II (n = 0)",0(0.0)
same,Response: Partial,"[4]; 4 days, CIN II (n = 0)",0(0.0)
same,Response: Progression,"[4]; 4 days, CIN II (n = 0)",0(0.0)
same,Response: Stable,"[4]; 4 days, CIN II (n = 0)",0(0.0)
same,Response: Complete,"[4]; 4 days, CIN III/CIS (n = 2)",0(0.0)
same,Response: Overall,"[4]; 4 days, CIN III/CIS (n = 2)",0(0.0)
same,Response: Partial,"[4]; 4 days, CIN III/CIS (n = 2)",0(0.0)
same,Response: Progression,"[4]; 4 days, CIN III/CIS (n = 2)",0(0.0)
same,Response: Stable,"[4]; 4 days, CIN III/CIS (n = 2)",2(100.0)
same,Response: Complete,"[4]; 8 days, CIN II (n = 12)",4(33.3)
same,Response: Overall,"[4]; 8 days, CIN II (n = 12)",8(66.7)
same,Response: Partial,"[4]; 8 days, CIN II (n = 12)",4(33.3)
same,Response: Progression,"[4]; 8 days, CIN II (n = 12)",0(0.0)
same,Response: Stable,"[4]; 8 days, CIN II (n = 12)",4(33.3)
same,Response: Complete,"[4]; 8 days, CIN III/CIS (n = 11)",3(27.3)
same,Response: Overall,"[4]; 8 days, CIN III/CIS (n = 11)",6(54.5)
same,Response: Partial,"[4]; 8 days, CIN III/CIS (n = 11)",3(27.3)
same,Response: Progression,"[4]; 8 days, CIN III/CIS (n = 11)",0(0.0)
same,Response: Stable,"[4]; 8 days, CIN III/CIS (n = 11)",5(45.4)
same,Response: Complete,"[4]; 14 days, CIN II (n = 14)",3(21.4)
same,Response: Overall,"[4]; 14 days, CIN II (n = 14)",6(42.9)
same,Response: Partial,"[4]; 14 days, CIN II (n = 14)",3(21.4)
same,Response: Progression,"[4]; 14 days, CIN II (n = 14)",0(0.0)
same,Response: Stable,"[4]; 14 days, CIN II (n = 14)",8(57.1)
same,Response: Complete,"[4]; 14 days, CIN III/CIS (n = 10)",2(20.0)
same,Response: Overall,"[4]; 14 days, CIN III/CIS (n = 10)",3(30.0)
same,Response: Partial,"[4]; 14 days, CIN III/CIS (n = 10)",1(10.0)
same,Response: Progression,"[4]; 14 days, CIN III/CIS (n = 10)",0(0.0)
same,Response: Stable,"[4]; 14 days, CIN III/CIS (n = 10)",7(70.0)
same,CIN Resolved,"[4]; CIN II, N = 27",30%
same,Improved to CIN I,"[4]; CIN II, N = 27",22%
same,Overall Response,"[4]; CIN II, N = 27",52%
same,Overall “cure”,"[4]; CIN II, N = 27",52%
same,CIN Resolved,"[4]; CIN III, N = 21",24%
same,Improved from CIN III to CIN II,"[4]; CIN III, N = 21",29%
same,Improved to CIN I,"[4]; CIN III, N = 21",19%
same,Overall Response,"[4]; CIN III, N = 21",72%
same,Overall “cure”,"[4]; CIN III, N = 21",43%
same,CIN Resolved,"[4]; Total, N = 48",27%
same,Improved from CIN III to CIN II,"[4]; Total, N = 48",13%
same,Improved to CIN I,"[4]; Total, N = 48",21%
same,Overall Response,"[4]; Total, N = 48",61%
same,Overall “cure”,"[4]; Total, N = 48",48%
same,response rates versus length of treatment,[4]; eight to fourteen days,did not increase
same,patients with complete response,"[4]; human, in vivo",Twelve
same,patients with partial response (regressed to CIN I),"[4]; human, in vivo",eleven
same,patients with stable disease with no progression,"[4]; human, in vivo",Twenty-six
same,Response: Complete,[4]; [6],0(0.0)
same,Response: Overall,[4]; [6],0(0.0)
same,Response: Partial,[4]; [6],0(0.0)
same,Response: Progression,[4]; [6],0(0.0)
same,Response: Stable,[4]; [6],2(100.0)
same,Response: Complete,[4]; [7],7(30.4)
same,Response: Overall,[4]; [7],14(60.8)
same,Response: Partial,[4]; [7],7(30.4)
same,Response: Progression,[4]; [7],0(0.0)
same,Response: Stable,[4]; [7],9(39.1)
same,Response: Complete,[4]; [8],5(20.8)
same,Response: Overall,[4]; [8],9(37.5)
same,Response: Partial,[4]; [8],4(16.7)
same,Response: Progression,[4]; [8],0(0.0)
same,Response: Stable,[4]; [8],15(62.5)
same,overall response rate (partial plus complete),"[4]; ninety days after treatment, 47 patients, eight day or fourteen day treatment",48.7%
same,adverse effects,[4]; no patient withdrawn because of an adverse event,all averse effects reported were mild
same,highest overall response rate,[4]; patients treated for eight days,60.8%
same,response,"[4]; two patients, four day treatment",no response
same,effect on proliferation of human cervical cell lines,[3],strong inhibitory effect
same,Types of Cancers and Precancers Active Against,cancer cells,"brain, cervical (including, e.g.,; also recorded: cervical intraepithelial neoplasia; also recorded: I, II, III), head and neck, leu-; also recorded: kemia, lymphoma, prostate, skin"
same,inhibition of proliferation of cervical cancer cell lines,"[5]; 1, 2 and 10 μM for 24, 48 and 96 hours",inhibit the proliferation of cervical cancer cell lines in a dose-dependent manner
same,EC50,"[5]; Homo sapiens, total incubation time 96 hours, estimated, read-out: EC50 (concentration that provides for 50% inhibition of cell proliferation)",~5 µM
same,effect of incubation longer than 24 hours on proliferation,[5]; increase between 48 and 96 hours not statistically significant (p>0.05),only a marginal effect on proliferation
same,concentration at which maximum inhibition of cell proliferation occurred,"[5]; tested at 1, 2 and 10 μM",10 µM
"COc1ccc(COc2ccc(C(=O)O)cc2)cc1C12CC3CC(CC(C3)C1)C2 [Compound 15, 4-[3-(1-adamantyl)-4-methoxybenzyloxy]benzoic acid]",Types of Cancers and Precancers Active Against,cancer cells,"breast, leukemia, prostate"
"CC12CC3CC(C)(C1)CC(c1cc(-c4ccc5cc(C(=O)O)ccc5c4)cc4c1OCO4)(C3)C2 [Compound 43, 6-[3-(3,5-dimethyl-1-adamantyl)-4,5-methylenedioxyphenyl]-2-naphthoic acid]",Types of Cancers and Precancers Active Against,cancer cells,"prostate, breast, neuroblastoma"
"COc1ccc(C(=O)Oc2ccc(C(=O)O)c(F)c2)cc1C12CC3CC(CC(C3)C1)C2 [Compound 20, 4-[3-(1-adamantyl)-4-methoxybenzoyloxy]-2-fluorobenzoic acid]",Types of Cancers and Precancers Active Against,cancer cells,"lymphoma, skin"
"COc1ccc(-c2ccc3cc(C(=O)O)ccc3c2)cc1C12CC3CC(CC(C3)O1)C2 [Compound 39, 6-[3-(2-oxa-1-adamantyl)-4-methoxyphenyl]-2-naphthoic acid]",Types of Cancers and Precancers Active Against,cancer cells,"kidney, lymphoma, skin, liver"
"COc1ccc(-c2cc3cc(C(=O)O)ccc3o2)cc1C12CC3CC(CC(C3)C1)C2 [Compound 16, 2-[3-(1-adamantyl)-4-methoxyphenyl]-5-benzofurancarboxylic acid]",Types of Cancers and Precancers Active Against,cancer cells,"brain, breast, prostate"
"COc1ccc(-c2ccc3cc(C(=O)O)ccc3c2)cc1C12CC3CC(CC(C)(C3)C1)C2 [Compound 41, 6-[3-(3-methyl-1-adamantyl)-4-methoxyphenyl]-2-naphthoic acid]",Types of Cancers and Precancers Active Against,cancer cells,skin
"NC(=O)CCCCCOc1ccc(/C=C/c2ccc(C(=O)O)cc2)cc1C12CC3CC(CC(C3)C1)C2 [Compound 30, (E) 4-{2-[4-(6-aminocarbonylpentyloxy)-3-(1-adamantyl)phenyl]ethenyl}benzoic acid]",Types of Cancers and Precancers Active Against,cancer cells,"lymphoma, myeloma"
